In US20230364074A1, “Compounds and Compositions for Disrupting Programmed Ribosomal Frameshifting” (YALE UNIVERSITY, priority 2020, published 2023):

System: SARS-CoV-2 FSE mutants
Format: cell-based

CCNCC1CCN(c2c(F)cc3c(=O)c(C(=O)O)cn(CC)c3c2F)C1 (centres unmarked) [merafloxacin, 1-ethyl-7-[3-(ethylaminomethyl)pyrrolidin-1-yl]-6,8-difluoro-4-oxoquinoline-3-carboxylic acid]
frameshifting inhibition in structure-perturbing FSE mutants: significantly inhibited frameshifting in all variants | −1 PRF inhibition in naturally occurring FSE variants: inhibited −1 PRF in all variants with similar efficacy
